# Earlier results as cited in patent US6482863B2, “Insect repellant formulation deliverable by piezoelectric device” (S. C. Johnson & Son, Inc., priority 2000, dated 2002).
# Legend:
# [1] = at 20° C.
# [2] = at 25° C.
water solubility [g/100 ml water],viscosity of solvent [2] [cp],SMILES,vapor pressure of solvent [1] [mm Hg]
35,1,COCC(C)OCC(C)OC (stereo not shown) [Dipropylene glycol dimethyl ether],0.55
–,–,COCC(C)O (stereo not shown) [Propylene glycol methyl ether],8.1
